Measurements published in patent US8029764B2, “Methods for detection of colorectal cancer” (The Johns Hopkins University, priority 2001, dated 2011).

System: colorectal tissue transcripts
Assay: SAGE of normal, adenoma and cancer colorectal tissue (transcript tag counts)
Design: species or system human
Details: for AD1 (SAGE tag count): SAGE library AD1; for AD2 (SAGE tag count): SAGE library AD2; for CA1 (SAGE tag count): SAGE library CA1; for CA2 (SAGE tag count): SAGE library CA2; for NC1 (SAGE tag count): SAGE library NC1; for NC2 (SAGE tag count): SAGE library NC2
Source text: In an effort to identify potential molecular markers of early colorectal tumors, we have here analyzed gene expression in benign and malignant colorectal tumors in an unbiased and comprehensive fashion. We used SAGE to analyze global gene expression in normal, benign and malignant colorectal tissue. SAGE is a gene expression profiling method that associates individual mRNA transcripts with 15-base tags derived from specific positions near their 3′ termini (3). The abundance of each tag provides a quantitative measure of the transcript level present within the mRNA population studied. SAGE is not dependent on pre-existing databases of expressed genes, and therefore provides an unbiased view of gene expression profiles. For the current study, SAGE libraries derived from two samples of normal colonic epithelium, two colorectal adenomas, and two colorectal cancers were analyzed.
SAGE. For the initial SAGE^3 of benign tumors, fresh adenomas were obtained from surgical specimens derived from FAP patients. Adenomas from FAP patients were employed because of the ready availability of small lesions and the certainty of inactivation of the APC pathway which initiates the formation of the majority of sporadic tumors. After histopathological verification of the neoplastic nature of the lesion (>70% neoplastic cells), total RNA was isolated by solubilizing the tissue in RNAgents Lysis Buffer (Promega, Madison, Wis.) followed by ultracentrifugation over a cesium chloride gradient. mRNA selection was performed from the purified total RNA using oligo(dT) cellulose (Life Technologies, Gaithersburg, Md.). […] Tags were extracted from the raw sequence data and, after excluding repeated ditags, linker sequences, and tags from the polyrnorphic Major Histocompatibility loci, the resulting tag libraries were compared and statistical analysis performed using SAGE software, version 4.0. Data from the libraries are publicly available at the Uniform Resource Locator (URL) address for the http file type found on the www host server that has a domain name of ncbi.nlm.nih.gov, and a path to the directory SAGE, and detailed SAGE protocols are available at the Uniform Resource Locator (URL) address for the http file type found on the www host server that has a domain name of sagenet.org, and file name of sage_protocol.htn.

Sequence | AD1 (SAGE tag count) | AD2 (SAGE tag count) | CA1 (SAGE tag count) | CA2 (SAGE tag count) | NC1 (SAGE tag count) | NC2 (SAGE tag count)
AAATCTGGCA (chemistry not fully specified) | 2 | 4 | 2 | 0 | 16 | 15
AACGTGCAGG (chemistry not fully specified) | 13 | 6 | 7 | 8 | 29 | 31
AAGAAAGCTC (chemistry not fully specified) | 0 | 2 | 1 | 5 | 20 | 6
AAGAAGCAGG (chemistry not fully specified; the letters are possibly those of the target site) | 3 | 4 | 1 | 3 | 8 | 16
AAGGTAGCAG (chemistry not fully specified) | 2 | 4 | 2 | 4 | 15 | 16
AATAAAGGCT (chemistry not fully specified) | 3 | 7 | 3 | 4 | 25 | 11
AATAGTTTCC (chemistry not fully specified) | 2 | 3 | 6 | 1 | 7 | 16
AATCACAAAT (chemistry not fully specified) | 1 | 4 | 14 | 3 | 18 | 45
AATGAGAAGG (chemistry not fully specified) | 0 | 0 | 1 | 0 | 11 | 3
ACAATTGGTC (chemistry not fully specified) | 0 | 0 | 0 | 0 | 0 | 10
ACACCCATCA (chemistry not fully specified) | 1 | 0 | 5 | 3 | 2 | 27
ACAGGGTGAC (chemistry not fully specified) | 1 | 8 | 7 | 6 | 25 | 13
ACATTGGGTG (chemistry not fully specified) | 67 | 34 | 96 | 33 | 377 | 334
ACCCAACTGC (chemistry not fully specified) | 0 | 0 | 0 | 0 | 12 | 3
ACCCACGTCA (chemistry not fully specified) | 3 | 5 | 3 | 1 | 22 | 10
ACCCCCCCGC (chemistry not fully specified) | 7 | 13 | 16 | 6 | 44 | 38
ACCTGCATCC (chemistry not fully specified) | 0 | 0 | 0 | 0 | 0 | 12

Sequence | AD1 (SAGE tag count) | AD2 (SAGE tag count) | CA1 (SAGE tag count) | CA2 (SAGE tag count) | NC1 (SAGE tag count) | NC2 (SAGE tag count)
ACCTGGGGAG (chemistry not fully specified) | 1 | 3 | 4 | 3 | 35 | 11
ACGGTCCAGG (chemistry not fully specified) | 0 | 0 | 0 | 1 | 5 | 12
ACTCTTGTTG (chemistry not fully specified) | 0 | 0 | 0 | 0 | 7 | 2
ACTGTGGCGG (chemistry not fully specified) | 9 | 12 | 9 | 4 | 17 | 34
AGAATAGCTT (chemistry not fully specified) | 3 | 9 | 11 | 30 | 44 | 67
AGCAGGAGCA (chemistry not fully specified) | 6 | 3 | 7 | 6 | 50 | 14
AGCCCGACCA (chemistry not fully specified) | 2 | 4 | 1 | 3 | 16 | 8
AGGATGGTCC (chemistry not fully specified; the letters are possibly those of the target site) | 5 | 3 | 6 | 8 | 34 | 19
AGGCCAAGGG (chemistry not fully specified) | 3 | 1 | 3 | 4 | 21 | 6
AGGTGACTGG (chemistry not fully specified) | 0 | 0 | 0 | 0 | 10 | 14
AGTGGGCTCA (chemistry not fully specified) | 0 | 1 | 0 | 0 | 3 | 8
ATACTCCACT (chemistry not fully specified) | 0 | 0 | 10 | 3 | 82 | 59
ATATAATCTG (chemistry not fully specified) | 1 | 4 | 5 | 5 | 18 | 14
ATCGTGGCGG (chemistry not fully specified) | 19 | 25 | 20 | 10 | 193 | 92
ATGACGCTCA (chemistry not fully specified) | 6 | 5 | 3 | 4 | 22 | 18
ATGATGGCAC (chemistry not fully specified; the letters are possibly those of the target site) | 1 | 0 | 1 | 0 | 12 | 32
